Experimental data: patent publication US20200055839A1 (priority 2017, published 2020)

test system: NL-RLuc virus; assay: Inhibition of HIV replication (NL-RLuc virus, luciferase readout in MT-2 cells); assay type: cell-based; conditions: Human immunodeficiency virus 1, MT2, 120 h, MT-2 cells infected with NL-RLuc virus, 5 days of incubation, 10% FBS, at least 2 experiments
Description: Inhibition of HIV Replication:
A recombinant NL-RLuc proviral clone was constructed in which a section of the nef gene form NL4-3 was replaced with the Renilla Luciferase gene. This virus is fully infectious and can undergo multiple cycles of replication in cell culture. In addition, the luciferous reporter provides a simple and easy method for quantitating the extent of virus growth and consequently, the antiviral activity of test compounds. The plasmid pNLRLuc contains the proviral NL-Rluc DNA cloned into pUC18 at the PvuII site. The NL-RLuc virus was prepared by transfection of 293T cells with the plasmid pNLRLuc. Transfections were performed using the LipofectAMINE PLUS kit form Invitrogen (Carlsbad, Calif.) according to the manufacturer and the virus generated was titered in MT-2 cells. For susceptibility analyses, the titrated virus was used to infect MT-2 cells in the presence of compound, and after 5 days of incubation, cells were processed and quantitated for virus growth by the amount of expressed luciferase. Assay media was RPMI 1640 supplemented with 10% heat inactivated fetal bovine serum (FBS), 100 units/ml penicillin G/100 units/ml streptomycin, 10 mM HEPES buffer pH 7.55 and 2 mM L-glutamine. The results form at least 2 experiments were used to calculate the EC50 values. Luciferase was quantitated using the Dual Luciferase kit form Promega (Madison, Wis.). Susceptibility of viruses to compounds was determined by incubation in the presence of serial dilutions of the compound. The 50% effective concentration (EC50) was calculated by using the exponential form of the median effect equation where (Fa)=1/[1+(ED50/drug conc.)^m](Johnson V A, Byington R T. Infectivity Assay. In Techniques in HIV Research. ed. Aldovini A, Walker B D. 71-76. New York: Stockton Press. 1990).

Compared with `CCC(C)COc1ncc(-c2cnc(C)c([C@H](OC(C)(C)C)C(=O)O)c2N2CCC(C)(C)CC2)cc1F` (stereo partly drawn) [Example 386, (2S)-2-(tert-butoxy)-2-[4-(4,4-dimethylpiperidin-1-yl)-5′-fluoro-6-methyl-6′-(2-methylbutoxy)-[3,3′-bipyridine]-5-yl]acetic acid], `Cc1ncc(-c2cnc(OCCc3ccc(F)cc3)c(F)c2)c(N2CCC(C)(C)CC2)c1[C@H](OC(C)(C)C)C(=O)O` [Example 118, (S)-2-(tert-Butoxy)-2-(4-(4,4-dimethylpiperidin-1-yl)-5′-fluoro-6′-(4-fluorophenethoxy)-6-methyl-[3, 3′-bipyridin]-5-yl)acetic acid] is 6-fold lower in EC50: 6 nM for the first, 1 nM for the second.

`Cc1cc(-c2cnc(C)c([C@H](OC(C)(C)C)C(=O)O)c2N2CCC(C)(C)CC2)cnc1OCCc1ccc(F)cc1` [Example 253, (S)-2-(tert-Butoxy)-2-(4-(4,4-dimethylpiperidin-1-yl)-6′-(4-fluorophenethoxy)-5′,6-dimethyl-[3,3′-bipyridin]-5-yl)acetic acid] and `Cc1ncc(-c2cnc(OCCc3ccc(F)c(F)c3)c(F)c2)c(N2CCC(C)(C)CC2)c1[C@H](OC(C)(C)C)C(=O)O` [Example 392, (2S)-2-(tert-butoxy)-2-{6′-[2-(3,4-difluorophenyl)ethoxy]-4-(4,4-dimethylpiperidin-1-yl)-5′-fluoro-6-methyl-[3,3′-bipyridine]-5-yl}acetic acid] are the same in EC50: 1 nM for the first, 1 nM for the second.

Going from `COc1c(F)cc(-c2c(CN3CCCC3)nc(C)c([C@H](OC(C)(C)C)C(=O)O)c2N2CCC(C)(C)CC2)cc1F` [Example 198, (2S)-2-(tert-Butoxy)-2-[5-(3,5-difluoro-4-methoxyphenyl)-4-(4,4-dimethylpiperidin-1-yl)-2-methyl-6-[(pyrrolidin-1-yl)methyl]pyridin-3-yl]acetic acid] to `COc1c(F)cc(-c2c(CN3CCCCCCC3)nc(C)c([C@H](OC(C)(C)C)C(=O)O)c2N2CCC(C)(C)CC2)cc1F` [Example 199, (2S)-2-{6-[(Azocan-1-yl)methyl]-5-(3,5-difluoro-4-methoxyphenyl)-4-(4,4-dimethylpiperidin-1-yl)-2-methylpyridin-3-yl}-2-(tert-butoxy)acetic acid], the EC50 falls from 12 nM to 4 nM (3-fold). The second is the more potent here.

`COCCNc1nc(C)c([C@H](OC(C)(C)C)C(=O)O)c(N2CCC(C)(C)CC2)c1-c1ccc(OCCc2ccc(F)cc2)cc1` [Example 27, (S)-2-(tert-Butoxy)-2-(4-(4,4-dimethylpiperidin-1-yl)-5-(4-(4-fluorophenethoxy)phenyl)-6-((2-methoxyethyl)amino)-2-methylpyridin-3-yl)acetic acid] and `Cc1nc(NCCC2CCN(C)CC2)c(-c2ccc(OCCc3ccc(F)cc3)cc2)c(N2CCC(C)(C)CC2)c1[C@H](OC(C)(C)C)C(=O)O` [Example 31, (S)-2-(tert-Butoxy)-2-(4-(4,4-dimethylpiperidin-1-yl)-5-(4-(4-fluorophenethoxy)phenyl)-2-methyl-6-((2-(1-methylpiperidin-4-yl)ethyl)amino)pyridin-3-yl)acetic acid] are within 1.5-fold of each other in EC50: 0.7 nM for the first, 0.8 nM for the second.

Compared with `Cc1ncc(-c2ccc(OCCc3c(Cl)cccc3Cl)cc2)c(N2CCC(C)(C)CC2)c1[C@H](OC(C)(C)C)C(=O)O` [Example 366, (2S)-2-(tert-butoxy)-2-(5-{4-[2-(2,6-dichlorophenyl)ethoxy]phenyl}-4-(4,4-dimethylpiperidin-1-yl)-2-methylpyridin-3-yl)acetic acid], `Cc1cccc(Cl)c1C(C)Oc1ccc(-c2cnc(C)c([C@H](OC(C)(C)C)C(=O)O)c2N2CCC(C)(C)CC2)cn1` (stereo partly drawn) [Example 424, (2S)-2-(tert-Butoxy)-2-(6′-(1-(2-chloro-6-methylphenyl)ethoxy)-4-(4,4-dimethylpiperidin-1-yl)-6-methyl-[3, 3′-bipyridin]-5-yl)acetic acid] is 3.2-fold higher in EC50: 5 nM for the first, 16 nM for the second. The first is the more potent here.

First: CC1(C)CCN(c2c(-c3ccc(OCCc4ccc(F)cc4)c(F)c3)cnc(Cl)c2[C@H](OC(C)(C)C)C(=O)O)CC1 [Example 214, (S)-2-(tert-Butoxy)-2-(2-chloro-4-(4,4-dimethylpiperidin-1-yl)-5-(3-fluoro-4-(4-fluorophenethoxy)phenyl)pyridin-3-yl)acetic acid]
Second: Cc1ncc(-c2ccc(OCc3ccc(F)cc3)cn2)c(N2CCC(C)(C)CC2)c1[C@H](OC(C)(C)C)C(=O)O [Example 344, (2S)-2-(tert-butoxy)-2-[4′-(4,4-dimethylpiperidin-1-yl)-5-[(4-fluorophenyl)methoxy]-6′-methyl-[2,3′-bipyridine]-5′-yl]acetic acid]
The EC50 of the first is 4.5-fold higher: 9 nM for the first, 2 nM for the second. The second is the more potent here.

`Cc1ncc(-c2ccc(CNc3ncnc4c3oc3ccccc34)cc2)c(N2CCC(C)(C)CC2)c1[C@H](OC(C)(C)C)C(=O)O` [Example 21, (2S)-2-(tert-Butoxy)-2-[4-(4,4-dimethylpiperidin-1-yl)-2-methyl-5-{4-[({8-oxa-3,5-diazatricyclo[7.4.0.0^2,7]trideca-1(9), 2(7), 3,5,10, 12-hexaen-6-yl}amino)methyl]phenyl}pyridin-3-yl]acetic acid] and `Cc1ncc(-c2ccc(COc3ccccc3)cn2)c(N2CCC(C)(C)CC2)c1[C@H](OC(C)(C)C)C(=O)O` [Example 272, (S)-2-(tert-Butoxy)-2-(4′-(4,4-dimethylpiperidin-1-yl)-6′-methyl-5-(phenoxymethyl)-[2, 3′-bipyridin]-5′-yl)acetic acid] are the same in EC50: 2 nM for the first, 2 nM for the second.

Compared with `Cc1ccccc1CCOc1ccc(-c2cnc(C)c([C@H](OC(C)(C)C)C(=O)O)c2N2CCC(C)(C)CC2)nc1` [Example 289, (2S)-2-(tert-butoxy)-2-[4′-(4,4-dimethylpiperidin-1-yl)-6′-methyl-5-[2-(2-methylphenyl)ethoxy]-[2,3′-bipyridine]-5′-yl]acetic acid], `Cc1ccc(-c2cnc(C)c([C@H](OC(C)(C)C)C(=O)O)c2N2CCC(C)(C)CC2)nc1` [Example 185, (2S)-2-(tert-Butoxy)-2-[4′-(4,4-dimethylpiperidin-1-yl)-5,6′-dimethyl-[2, 3′-bipyridine]-5′-yl]acetic acid] is 11-fold higher in EC50: 1 nM for the first, 11 nM for the second. The first is the more potent here.

Going from `Cc1nc(NC2CCN(S(C)(=O)=O)CC2)c(-c2ccc(OCCc3ccc(F)cc3)cc2)c(N2CCC(C)(C)CC2)c1[C@H](OC(C)(C)C)C(=O)O` [Example 99, (S)-2-(tert-Butoxy)-2-(4-(4,4-dimethylpiperidin-1-yl)-5-(4-(4-fluorophenethoxy)phenyl)-2-methyl-6-((1-(methylsulfonyl)piperidin-4-yl)amino)pyridin-3-yl)acetic acid] to `COc1cccc(-c2cnc(C)c([C@H](OC(C)(C)C)C(=O)O)c2N2CCC(C)(C)CC2)c1F` [Example 156, (2S)-2-(tert-Butoxy)-2-[4-(4,4-dimethylpiperidin-1-yl)-5-(2-fluoro-3-methoxyphenyl)-2-methylpyridin-3-yl]acetic acid], the EC50 rises from 0.6 nM to 1 nM (1.7-fold). The first is the more potent here.

First: Cc1ncc(-c2cccc3cccnc23)c(N2CCC(C)(C)CC2)c1[C@H](OC(C)(C)C)C(=O)O [Example 184, (2S)-2-(tert-Butoxy)-2-[4-(4,4-dimethylpiperidin-1-yl)-2-methyl-5-(quinolin-8-yl)pyridin-3-yl]acetic acid]
Second: COc1cccc(-c2cnc(C)c([C@H](OC(C)(C)C)C(=O)O)c2N2CCC(C)(C)CC2)c1OC [Example 158, (2S)-2-(tert-Butoxy)-2-[5-(2,3-dimethoxyphenyl)-4-(4,4-dimethylpiperidin-1-yl)-2-methylpyridin-3-yl]acetic acid]
The EC50 of the first is 2-fold lower: 8 nM for the first, 16 nM for the second. The first is the more potent here.
